{"source": "paper PMC3968008", "about": "(PLoS ONE, 2014)", "key": {"[1]": {"system": "E. coli (ATCC25922)", "assay": "microbe, parasite or virus in culture", "assay_type": "cell-based, Escherichia coli", "conditions": "ATCC25922, 48 h", "description": "(§1) Antimicrobial activity of the peptides was evaluated against Escherichia coli JCM 5491, Pseudomonas aeruginosa JCM 6119, Staphylococcus aureus JCM2874, Salmonella Typhimurium JCM1652, Acinetobacter baumannii JCM6841, Bacteroides fragilis JCM11019, Fusobacterium nucleatum JCM11025, Penicillium glabrum JCM22534, Fusarium solani JCM11383, Alternaria alternata JCM5800 (RIKEN, A research institution for basic and applied science in Japan), Micrococcus luteus NBRC13867, Bacillus subtilis NBRC3134, Propionibacterium acnes NBRC107605, Trichophyton mentagrophytes NBRC6124, Trichophyton rubrum NBRC9185, Candida krusei NBRC1395 (National Institute of Technology and Evaluation, Tokyo, Japan), Salmonella Enteritidis IID604 (The Institute of Medical Science, The University of Tokyo, Tokyo, Japan). Additionally, the clinical isolates (Drug-sensitive/resistant Pseudomonas aeruginosa and Staphylococcus aureus, Osaka University Hospital) and multidrug-resistant Acinetobacter baumannii (ATCC BAA-1605) were used. […] Serial two-fold dilutions of peptide were added to 0.1 ml of medium containing each type of bacteria and fungi at concentrations of 0.4×10^4 – 5×10^4 CFU/ml. The plates were incubated at 37°C with vigorous shaking for 24 or 48 hours. The MICs were determined as the lowest concentrations of peptide that inhibited visible bacterial growth."}, "[2]": {"system": "S. aureus (ATCC29213)", "assay": "microbe, parasite or virus in culture", "assay_type": "cell-based, Staphylococcus aureus", "conditions": "ATCC29213, 48 h", "description": "as §1"}, "[3]": {"system": "Micrococcus luteus", "assay": "microbe, parasite or virus in culture", "assay_type": "cell-based", "conditions": "48 h", "description": "as §1"}, "[4]": {"system": "Bacillus subtilis", "assay": "microbe, parasite or virus in culture", "assay_type": "cell-based", "conditions": "48 h", "description": "(§2) Antimicrobial activity of the peptides was evaluated against Escherichia coli JCM 5491, Pseudomonas aeruginosa JCM 6119, Staphylococcus aureus JCM2874, Salmonella Typhimurium JCM1652, Acinetobacter baumannii JCM6841, Bacteroides fragilis JCM11019, Fusobacterium nucleatum JCM11025, Penicillium glabrum JCM22534, Fusarium solani JCM11383, Alternaria alternata JCM5800 (RIKEN, A research institution for basic and applied science in Japan), Micrococcus luteus NBRC13867, Bacillus subtilis NBRC3134, Propionibacterium acnes NBRC107605, Trichophyton mentagrophytes NBRC6124, Trichophyton rubrum NBRC9185, Candida krusei NBRC1395 (National Institute of Technology and Evaluation, Tokyo, Japan), Salmonella Enteritidis IID604 (The Institute of Medical Science, The University of Tokyo, Tokyo, Japan). […] Serial two-fold dilutions of peptide were added to 0.1 ml of medium containing each type of bacteria and fungi at concentrations of 0.4×10^4 – 5×10^4 CFU/ml. The plates were incubated at 37°C with vigorous shaking for 24 or 48 hours. The MICs were determined as the lowest concentrations of peptide that inhibited visible bacterial growth."}, "[5]": {"system": "Salmonella Enteritidis", "assay": "microbe, parasite or virus in culture", "assay_type": "cell-based", "conditions": "48 h", "description": "as §2"}, "[6]": {"system": "Salmonella Typhimurium", "assay": "microbe, parasite or virus in culture", "assay_type": "cell-based", "conditions": "murium, 48 h", "description": "as §2"}, "[7]": {"system": "Acinetobacter baumannii", "assay_type": "cell-based", "conditions": "48 h", "description": "as §2"}, "[8]": {"system": "Bacteroides fragilis", "assay": "microbe, parasite or virus in culture", "assay_type": "cell-based", "conditions": "48 h", "description": "as §1"}, "[9]": {"system": "Fusarium solani", "assay": "microbe, parasite or virus in culture", "assay_type": "cell-based", "conditions": "48 h", "description": "as §1"}, "[10]": {"system": "Alternaria alternata", "assay": "microbe, parasite or virus in culture", "assay_type": "cell-based", "conditions": "48 h", "description": "as §1"}, "[11]": {"system": "Trichophyton mentagrophytes", "assay": "microbe, parasite or virus in culture", "assay_type": "cell-based", "conditions": "48 h", "description": "as §1"}, "[12]": {"system": "Trichophyton rubrum", "assay": "microbe, parasite or virus in culture", "assay_type": "cell-based", "conditions": "48 h", "description": "as §1"}, "[13]": {"system": "Candida krusei", "assay": "microbe, parasite or virus in culture", "assay_type": "cell-based", "conditions": "48 h", "description": "as §1"}, "[14]": {"system": "Carbapenem-resistant Pseudomonas aeruginosa", "assay_type": "cell-based", "conditions": "48 h", "description": "as §2"}, "[15]": {"system": "Multidrug-resistant Acinetobacter baumannii", "assay_type": "cell-based", "conditions": "48 h", "description": "as §2"}, "[16]": {"conditions": "peptide 500 μg/ml, 37°C, 3 or 10 minutes, acetonitrile/0.1% trifluoroacetate precipitation, HPLC, N = 2 (Fig. 1E)", "method": "In vitro stability studies were performed by incubating the peptide with rat or human serum. Human sera (Pool of donors, 5 men and 5 women) were commercially purchased from KAC (Kyoto, Japan), which has been permitted only for experiment. We don't use the human biological specimens without the documented informed consent. Rat sera were collected from rats. The peptide (500 μg/ml) was added to serum (300 μL) and incubated at 37°C. A part of samples (90 μL) were taken, and the proteins were precipitated with acetonitrile containing 0.1% trifluoroacetate (200 μL). The precipitate was separated by centrifugation. The supernatants were analyzed by high-performance liquid chromatography (HPLC)."}}, "note": "Square brackets hold non-standard residues; d marks the D form. Peptide text beside a SMILES is read from it.", "data": [{"smiles": "CC[C@H](C)[C@H](NC(=O)[C@H](CC(C)C)NC(=O)[C@H](CCCCN)NC(=O)[C@H](CC(C)C)NC(=O)[C@@H](N)CCSC)C(=O)N[C@@H](Cc1ccccc1)C(=O)N[C@@H](CC(C)C)C(=O)N[C@@H](Cc1c[nH]cn1)C(=O)N[C@@H](CCCNC(=N)N)C(=O)N[C@@H](CC(C)C)C(=O)N[C@@H](CCCCN)C(=O)N[C@@H](CCCNC(=N)N)C(=O)N[C@@H](CCSC)C(=O)N[C@@H](CCCNC(=N)N)C(=O)N[C@@H](CCCCN)C(=O)N[C@@H](CCCNC(=N)N)C(=O)N[C@@H](CC(C)C)C(=O)N[C@H](CCCCN)C(=O)N[C@@H](CCCNC(=N)N)C(=O)N[C@@H](CCCCN)C(=O)O", "note": "[SR-0379] (H-MLKLIFLHRLKRMRKRL[dK]RK-OH)", "values": [{"measurement": "MIC E. coli (ATCC25922)", "setting": "[1]", "value": 8, "unit": "µg/mL"}, {"measurement": "MIC S. aureus (ATCC29213)", "setting": "[2]", "value": 16, "unit": "µg/mL"}, {"measurement": "MIC Micrococcus luteus", "setting": "[3]", "value": 2, "unit": "µg/mL"}, {"measurement": "MIC Bacillus subtilis", "setting": "[4]", "value": 2, "unit": "µg/mL"}, {"measurement": "MIC Salmonella Enteritidis", "setting": "[5]", "value": 8, "unit": "µg/mL"}, {"measurement": "MIC Salmonella Typhimurium", "setting": "[6]", "value": 8, "unit": "µg/mL"}, {"measurement": "MIC Acinetobacter baumannii", "setting": "[7]", "value": 8, "unit": "µg/mL"}, {"measurement": "MIC Bacteroides fragilis", "setting": "[8]", "value": 32, "unit": "µg/mL"}, {"measurement": "MIC Fusarium solani", "setting": "[9]", "value": 8, "unit": "µg/mL"}, {"measurement": "MIC Alternaria alternata", "setting": "[10]", "value": 32, "unit": "µg/mL"}, {"measurement": "MIC Trichophyton mentagrophytes", "setting": "[11]", "value": 32, "unit": "µg/mL"}, {"measurement": "MIC Trichophyton rubrum", "setting": "[12]", "value": 64, "unit": "µg/mL"}, {"measurement": "MIC Candida krusei", "setting": "[13]", "value": 32, "unit": "µg/mL"}, {"measurement": "MIC Pseudomonas aeruginosa, Carbapenem-resistant", "setting": "[14]", "value": "16 to 64", "unit": "µg/mL"}, {"measurement": "MIC Acinetobacter baumannii, Multidrug-resistant", "setting": "[15]", "value": 16, "unit": "µg/mL"}, {"measurement": "Stability in human serum", "setting": "[16]; human serum (pool of 5 men and 5 women) 300 μL", "value": "significantly improved"}, {"measurement": "Stability in rat serum", "setting": "[16]; rat serum 300 μL", "value": "significantly improved"}]}]}
